Measurements published in paper PMC5418314, “First-in-human phase I study of SOR-C13, a TRPV6 calcium channel inhibitor, in patients with advanced solid tumors” (Investigational New Drugs, 2017).
Like-named read-outs stand apart in the source and are kept apart here. Ends that are not written are not given here.

What was measured:
[1] = Phase I plasma pharmacokinetics; format: in vivo, human; details: human, plasma, iv, 90-min IV infusion, plasma LC-MS
Method: Blood samples were taken on Days 1, 3, 8 and 10 of Cycle 1 to assess the pharmacokinetic (PK) profile of SOR-C13 at the various doses used. Plasma samples for the IV 20 min infusion were taken at pre-infusion, 5, 15 min after the start of infusion and post-infusion at 2, 5, 10 and 30 min and 1, 4 h. Plasma samples for SOR-C13 analysis for the 90 min infusion were taken pre-infusion, at 5, 15 and 45 min after the start of infusion, and at 2, 5, 10 and 30 min post-infusion. Since the infusion for the majority of patients, and further studies will be IV 90 min only PK data for this infusion time are presented. Validated liquid chromatography-mass spectrometry analysis provided the plasma concentration/time data.

[2] = peptide degradation in rat plasma; format: in vitro ADME
Phase I ECG assessment = format: in vivo, human
Text: A Safety Monitoring Committee (SMC) oversaw the safety aspects of the study. Safety endpoints included: incidence of adverse events (AEs) and serious AEs (SAEs), withdrawals due to AEs, Dose Limiting Toxicities (DLTs), infusion reactions, deaths on study, vital signs, electrocardiogram (ECGs), clinical laboratory parameters and changes to the treatment regimen (dose delay, dose decrease) due to AEs. The National Cancer Institute (NCI) Common Terminology Criteria for Adverse Events (CTCAE) Version 4.0 was used to grade the severity of AEs.

[3] = GLP toxicology study, daily IV bolus for 28 days, rat; format: in vivo
Method: Anatomical pathology provided a No Observable Adverse Effect Level (NOAEL) of 200 mg/kg/day for rats. […] With results indicating antitumor activity in animal studies, a small toxicological footprint, a novel oncology target and a mechanism of action supported by the literature, SOR-C13 was formulated for intravenous injection (IV) for clinical evaluation. Here we present results of the ‘first-in-human’, Phase I clinical study evaluating SOR-C13 in adults with advanced solid tumors of epithelial origin refractory to all standard-of-care treatments.

hERG = hERG (Homo sapiens, UniProt Q12809); experiment: hERG channel activity; format: biochemical
Chain of hERG (Q12809 whole entry): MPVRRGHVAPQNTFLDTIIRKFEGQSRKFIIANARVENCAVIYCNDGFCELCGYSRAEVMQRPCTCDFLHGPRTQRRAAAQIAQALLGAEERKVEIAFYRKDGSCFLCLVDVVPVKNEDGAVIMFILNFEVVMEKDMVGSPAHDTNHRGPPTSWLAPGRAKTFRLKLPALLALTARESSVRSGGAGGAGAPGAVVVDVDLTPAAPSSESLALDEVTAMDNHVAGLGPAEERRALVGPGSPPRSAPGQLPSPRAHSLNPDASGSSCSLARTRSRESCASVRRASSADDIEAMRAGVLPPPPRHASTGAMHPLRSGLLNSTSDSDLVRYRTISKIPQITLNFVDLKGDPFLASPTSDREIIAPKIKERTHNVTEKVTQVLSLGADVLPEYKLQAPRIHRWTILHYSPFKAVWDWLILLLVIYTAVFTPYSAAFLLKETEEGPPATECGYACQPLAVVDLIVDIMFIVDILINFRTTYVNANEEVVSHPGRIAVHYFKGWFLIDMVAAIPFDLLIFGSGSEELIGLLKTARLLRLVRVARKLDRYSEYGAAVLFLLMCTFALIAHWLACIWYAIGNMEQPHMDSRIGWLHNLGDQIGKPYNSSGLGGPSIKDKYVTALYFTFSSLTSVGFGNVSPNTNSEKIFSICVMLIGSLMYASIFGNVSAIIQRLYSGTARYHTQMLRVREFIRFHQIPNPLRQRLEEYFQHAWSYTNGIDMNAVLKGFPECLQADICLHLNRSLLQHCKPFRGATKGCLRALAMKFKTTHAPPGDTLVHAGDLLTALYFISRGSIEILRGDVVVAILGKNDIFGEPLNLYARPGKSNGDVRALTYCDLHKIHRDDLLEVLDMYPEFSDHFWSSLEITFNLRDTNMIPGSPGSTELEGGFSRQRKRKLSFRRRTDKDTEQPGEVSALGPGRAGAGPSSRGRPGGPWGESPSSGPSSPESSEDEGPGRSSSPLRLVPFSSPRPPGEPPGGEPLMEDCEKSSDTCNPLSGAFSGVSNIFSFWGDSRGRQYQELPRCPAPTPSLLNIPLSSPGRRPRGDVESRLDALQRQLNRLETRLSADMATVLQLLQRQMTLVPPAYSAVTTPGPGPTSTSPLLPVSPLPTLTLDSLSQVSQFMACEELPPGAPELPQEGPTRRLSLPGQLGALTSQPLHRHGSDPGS

KEFLHPSKVDLPR [SOR-C13]
Tmax ([1]; 2.75 mg/kg, Cohort 4: 2.75 mg/kg, N = 6, Cycle 1 Day 10, read-out: Time to peak plasma concentration, Median): 30 min
AUC(0-t) ([1]; 4.13 mg/kg, Cohort 5: 4.13 mg/kg, N = 3, Cycle 1 Day 1, read-out: AUCtau, Mean (SD)): 78.4 ng·h/mL
AUC(0-t) ([1]; 4.13 mg/kg, Cohort 5: 4.13 mg/kg, N = 3, Cycle 1 Day 1, read-out: AUCtau, Median): 23.4 ng·h/mL
Cmax ([1]; 4.13 mg/kg, Cohort 5: 4.13 mg/kg, N = 3, Cycle 1 Day 1, read-out: Peak plasma concentration, Mean (SD)): 139 ng/mL
Cmax ([1]; 4.13 mg/kg, Cohort 5: 4.13 mg/kg, N = 3, Cycle 1 Day 1, read-out: Peak plasma concentration, Median): 42 ng/mL
Tmax ([1]; 4.13 mg/kg, Cohort 5: 4.13 mg/kg, N = 3, Cycle 1 Day 1, read-out: Time to peak plasma concentration, Mean (SD)): 25 min
Tmax ([1]; 4.13 mg/kg, Cohort 5: 4.13 mg/kg, N = 3, Cycle 1 Day 1, read-out: Time to peak plasma concentration, Median): 15 min
AUC(0-t) ([1]; 4.13 mg/kg, Cohort 5: 4.13 mg/kg, N = 3, Cycle 1 Day 3, read-out: AUCtau, Mean (SD)): 373 ng·h/mL
AUC(0-t) ([1]; 4.13 mg/kg, Cohort 5: 4.13 mg/kg, N = 3, Cycle 1 Day 3, read-out: AUCtau, Median): 403 ng·h/mL
Cmax ([1]; 4.13 mg/kg, Cohort 5: 4.13 mg/kg, N = 3, Cycle 1 Day 3, read-out: Peak plasma concentration, Mean (SD)): 369 ng/mL
Cmax ([1]; 4.13 mg/kg, Cohort 5: 4.13 mg/kg, N = 3, Cycle 1 Day 3, read-out: Peak plasma concentration, Median): 403 ng/mL
Tmax ([1]; 4.13 mg/kg, Cohort 5: 4.13 mg/kg, N = 3, Cycle 1 Day 3, read-out: Time to peak plasma concentration, Mean (SD)): 35 min
Tmax ([1]; 4.13 mg/kg, Cohort 5: 4.13 mg/kg, N = 3, Cycle 1 Day 3, read-out: Time to peak plasma concentration, Median): 45 min
AUC(0-t) ([1]; 4.13 mg/kg, Cohort 5: 4.13 mg/kg, N = 3, Cycle 1 Day 8, read-out: AUCtau, Mean (SD)): 197 ng·h/mL
AUC(0-t) ([1]; 4.13 mg/kg, Cohort 5: 4.13 mg/kg, N = 3, Cycle 1 Day 8, read-out: AUCtau, Median): 245 ng·h/mL
Cmax ([1]; 4.13 mg/kg, Cohort 5: 4.13 mg/kg, N = 3, Cycle 1 Day 8, read-out: Peak plasma concentration, Mean (SD)): 212 ng/mL
Cmax ([1]; 4.13 mg/kg, Cohort 5: 4.13 mg/kg, N = 3, Cycle 1 Day 8, read-out: Peak plasma concentration, Median): 264 ng/mL
Tmax ([1]; 4.13 mg/kg, Cohort 5: 4.13 mg/kg, N = 3, Cycle 1 Day 8, read-out: Time to peak plasma concentration, Mean (SD)): 18.2 min
Tmax ([1]; 4.13 mg/kg, Cohort 5: 4.13 mg/kg, N = 3, Cycle 1 Day 8, read-out: Time to peak plasma concentration, Median): 4.8 min
AUC(0-t) ([1]; 4.13 mg/kg, Cohort 5: 4.13 mg/kg, N = 3, Cycle 1 Day 10, read-out: AUCtau, Mean (SD)): 273 ng·h/mL
AUC(0-t) ([1]; 4.13 mg/kg, Cohort 5: 4.13 mg/kg, N = 3, Cycle 1 Day 10, read-out: AUCtau, Median): 324 ng·h/mL
Cmax ([1]; 4.13 mg/kg, Cohort 5: 4.13 mg/kg, N = 3, Cycle 1 Day 10, read-out: Peak plasma concentration, Mean (SD)): 280 ng/mL
Cmax ([1]; 4.13 mg/kg, Cohort 5: 4.13 mg/kg, N = 3, Cycle 1 Day 10, read-out: Peak plasma concentration, Median): 295 ng/mL
Tmax ([1]; 4.13 mg/kg, Cohort 5: 4.13 mg/kg, N = 3, Cycle 1 Day 10, read-out: Time to peak plasma concentration, Mean (SD)): 21.6 min
AUC(0-t) ([1]; 6.2 mg/kg, Cohort 6: 6.2 mg/kg, N = 6, Cycle 1 Day 1, read-out: AUCtau, Mean (SD)): 1130 ng·h/mL
AUC(0-t) ([1]; 6.2 mg/kg, Cohort 6: 6.2 mg/kg, N = 6, Cycle 1 Day 1, read-out: AUCtau, Median): 570 ng·h/mL
Cmax ([1]; 6.2 mg/kg, Cohort 6: 6.2 mg/kg, N = 6, Cycle 1 Day 1, read-out: Peak plasma concentration, Mean (SD)): 1150 ng/mL
Cmax ([1]; 6.2 mg/kg, Cohort 6: 6.2 mg/kg, N = 6, Cycle 1 Day 1, read-out: Peak plasma concentration, Median): 682 ng/mL
Tmax ([1]; 6.2 mg/kg, Cohort 6: 6.2 mg/kg, N = 6, Cycle 1 Day 1, read-out: Time to peak plasma concentration, Mean (SD)): 56.6 min
AUC(0-t) ([1]; 6.2 mg/kg, Cohort 6: 6.2 mg/kg, N = 6, Cycle 1 Day 3, read-out: AUCtau, Mean (SD)): 1100 ng·h/mL
AUC(0-t) ([1]; 6.2 mg/kg, Cohort 6: 6.2 mg/kg, N = 6, Cycle 1 Day 3, read-out: AUCtau, Median): 904 ng·h/mL
Cmax ([1]; 6.2 mg/kg, Cohort 6: 6.2 mg/kg, N = 6, Cycle 1 Day 3, read-out: Peak plasma concentration, Mean (SD)): 1020 ng/mL
Cmax ([1]; 6.2 mg/kg, Cohort 6: 6.2 mg/kg, N = 6, Cycle 1 Day 3, read-out: Peak plasma concentration, Median): 843 ng/mL
Tmax ([1]; 6.2 mg/kg, Cohort 6: 6.2 mg/kg, N = 6, Cycle 1 Day 3, read-out: Time to peak plasma concentration, Mean (SD)): 27.7 min
Tmax ([1]; 6.2 mg/kg, Cohort 6: 6.2 mg/kg, N = 6, Cycle 1 Day 3, read-out: Time to peak plasma concentration, Median): 9.9 min
AUC(0-t) ([1]; 6.2 mg/kg, Cohort 6: 6.2 mg/kg, N = 6, Cycle 1 Day 8, read-out: AUCtau, Mean (SD)): 1340 ng·h/mL
AUC(0-t) ([1]; 6.2 mg/kg, Cohort 6: 6.2 mg/kg, N = 6, Cycle 1 Day 8, read-out: AUCtau, Median): 843 ng·h/mL
Cmax ([1]; 6.2 mg/kg, Cohort 6: 6.2 mg/kg, N = 6, Cycle 1 Day 8, read-out: Peak plasma concentration, Mean (SD)): 1440 ng/mL
Cmax ([1]; 6.2 mg/kg, Cohort 6: 6.2 mg/kg, N = 6, Cycle 1 Day 8, read-out: Peak plasma concentration, Median): 826 ng/mL
Tmax ([1]; 6.2 mg/kg, Cohort 6: 6.2 mg/kg, N = 6, Cycle 1 Day 8, read-out: Time to peak plasma concentration, Mean (SD)): 45.8 min
AUC(0-t) ([1]; 6.2 mg/kg, Cohort 6: 6.2 mg/kg, N = 6, Cycle 1 Day 10, read-out: AUCtau, Mean (SD)): 1430 ng·h/mL
AUC(0-t) ([1]; 6.2 mg/kg, Cohort 6: 6.2 mg/kg, N = 6, Cycle 1 Day 10, read-out: AUCtau, Median): 830 ng·h/mL
Cmax ([1]; 6.2 mg/kg, Cohort 6: 6.2 mg/kg, N = 6, Cycle 1 Day 10, read-out: Peak plasma concentration, Mean (SD)): 1380 ng/mL
Cmax ([1]; 6.2 mg/kg, Cohort 6: 6.2 mg/kg, N = 6, Cycle 1 Day 10, read-out: Peak plasma concentration, Median): 794 ng/mL
Tmax ([1]; 6.2 mg/kg, Cohort 6: 6.2 mg/kg, N = 6, Cycle 1 Day 10, read-out: Time to peak plasma concentration, Mean (SD)): 36.1 min
Tmax ([1]; 6.2 mg/kg, Cohort 6: 6.2 mg/kg, N = 6, Cycle 1 Day 10, read-out: Time to peak plasma concentration, Median): 30 min
peptide degradation half-life [2]: about 1 h
mean changes in QTc intervals compared to pre-infusion values (Phase I ECG assessment; 90-min infusions (N = 18), Cycle 1): −4.2 to +12.7 msec
ECG abnormalities (Phase I ECG assessment; during the study): No clinically significant ECG abnormalities
QT or QTc prolongations above 500 msec (Phase I ECG assessment; during the study): no QT or QTc prolongations above 500 msec
QTc prolongation >60 msec compared to baseline or same-day pre-dose values (Phase I ECG assessment; during the study): no patient experienced QTc prolongation >60 msec
antigenicity [3]: no antigenicity
cardiovascular toxicity [3]: no cardiovascular toxicity
toxicity [3]: minimal toxicity
modulation of channel activity (hERG): no modulation of channel activity
